Experimental data taken from patent US11851430B1, “Pyrido[4,3-B]indole-7-carboxylic acid compounds as CK2 inhibitors” (KING FAISAL UNIVERSITY, priority 2023, dated 2023).

Legend:
[1] = test system: PC3 (prostate) cancer cells; assay: In vitro cytotoxic activity (MTT) assay, PC3; type: cell-based; conditions: Homo sapiens, PC-3, exposed for 96 hours, read-out: IC50, inhibition of cell proliferation, PC3 (prostate)
Experimental: (§1) Compounds 1-12 were screened for their in vitro cytotoxic activity utilizing a 3-(4,5-dimethyl-thiazol-2-yl)-2,5-diphenyltetrazolium bromide (MTT) assay against selected cancer human cell lines consisting of PC3 (prostate), HCT116 (colon), A375 (melanoma), H1299 (lung), MIAPaCa-2 (pancreas), HL60 (leukemia), MCF7 (breast), MDA-MB-231 (breast) (T. Mosmann, J. Immunol. Meth., 1983, 65, 55-63). The cells were cultured at 37° C. in RMPI1640 medium supplemented with 10% fetal bovine serum, 50 IU/mL penicillin, and 50 μg/mL streptomycin in a 5% CO2 incubator. All cells were sub-cultured 3 times/week by trypsinisation. Viable cells were seeded and allowed to adhere for 12 h before a test drug was added in 96-well plates at an initial density of 1.0×10^5 cells/mL. Tumour cell lines were separately exposed to various concentrations of the tested compounds followed by incubation at a temperature of 37° C. during 96 h inside a medium of fresh RMPI 1640. Cells were subsequently incubated at 37° C. using MTT at 0.5 mg/mL during 4 h. After removal of supernatant, formazan crystals were dissolved in isopropanol and the optical density was measured at 570 nm. CX-4945 was used as a positive control.

[2] = test system: HCT116 (colon) cancer cells; assay: In vitro cytotoxic activity (MTT) assay, HCT116; type: cell-based; conditions: Homo sapiens, HCT-116, exposed for 96 hours, read-out: IC50, inhibition of cell proliferation, HCT116 (colon)
Experimental: as §1

[3] = test system: A375 (melanoma) cancer cells; assay: In vitro cytotoxic activity (MTT) assay, A375; type: cell-based; conditions: Homo sapiens, A-375, exposed for 96 hours, read-out: IC50, inhibition of cell proliferation, A375 (melanoma)
Experimental: as §1

[4] = test system: H1299 (lung) cancer cells; assay: In vitro cytotoxic activity (MTT) assay, H1299; type: cell-based; conditions: Homo sapiens, NCI-H1299, exposed for 96 hours, read-out: IC50, inhibition of cell proliferation, H1299 (lung)
Experimental: as §1

[5] = test system: MIAPaCa-2 (pancreas) cancer cells; assay: In vitro cytotoxic activity (MTT) assay, MIAPaCa-2; type: cell-based; conditions: Homo sapiens, MIA PaCa-2; MIAPaCa-2 cells, exposed for 96 hours; read-out: IC50, inhibition of cell proliferation, MIAPaCa-2 (pancreas)
Experimental: as §1

[6] = test system: HL60 (leukemia) cancer cells; assay: In vitro cytotoxic activity (MTT) assay, HL60; type: cell-based; conditions: Homo sapiens, HL-60, exposed for 96 hours, read-out: IC50, inhibition of cell proliferation, HL60 (leukemia)
Experimental: as §1

[7] = test system: MCF7 (breast) cancer cells; assay: In vitro cytotoxic activity (MTT) assay, MCF7; type: cell-based; conditions: Homo sapiens, exposed for 96 hours, read-out: IC50, inhibition of cell proliferation, MCF7 (breast)
Experimental: as §1

[8] = test system: MDA-MB-231 (breast) cancer cells; assay: In vitro cytotoxic activity (MTT) assay, MDA-MB-231; type: cell-based; conditions: Homo sapiens; MDA-MB-231 cells, exposed for 96 hours; read-out: IC50, inhibition of cell proliferation, MDA-MB-231 (breast)
Experimental: as §1

[9] = molecular target: T1, recombinant human CK2 (RRββ-holoenzyme) (Homo sapiens, UniProt P68400); assay: CK2 kinase assay (radiometric, [γ-33P]ATP); type: biochemical; conditions: final ATP 15 μM, 10 min at 30° C., eight concentrations; read-out: IC50, protein kinase CK2 activity
T1 construct: purchased Millipore
T1 sequence (P68400 whole entry): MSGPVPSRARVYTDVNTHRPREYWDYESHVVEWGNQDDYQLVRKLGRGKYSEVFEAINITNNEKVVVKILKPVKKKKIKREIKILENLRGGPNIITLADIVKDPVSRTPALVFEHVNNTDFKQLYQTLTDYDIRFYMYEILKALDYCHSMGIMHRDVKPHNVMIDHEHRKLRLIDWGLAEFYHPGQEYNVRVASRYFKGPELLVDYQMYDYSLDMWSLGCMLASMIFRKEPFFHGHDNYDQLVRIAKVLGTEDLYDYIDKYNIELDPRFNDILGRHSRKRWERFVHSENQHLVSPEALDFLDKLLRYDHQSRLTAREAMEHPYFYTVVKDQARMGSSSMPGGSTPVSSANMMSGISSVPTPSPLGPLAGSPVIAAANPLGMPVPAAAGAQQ
T1 sequence (P67870 whole entry partner): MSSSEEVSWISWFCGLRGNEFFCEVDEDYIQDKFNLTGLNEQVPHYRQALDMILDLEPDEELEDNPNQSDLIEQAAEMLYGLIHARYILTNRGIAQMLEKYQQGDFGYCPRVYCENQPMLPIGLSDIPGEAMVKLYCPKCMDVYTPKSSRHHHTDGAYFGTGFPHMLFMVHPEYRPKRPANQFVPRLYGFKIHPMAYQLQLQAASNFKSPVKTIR
Experimental: CK2 Kinase Assay was conducted using the protocol as described in Pierre F. et al; J. Med. Chem. 2011, 54, 635-654. The tested compounds in aqueous solution were added at a volume of 10 μL to a reaction mixture comprising 10 μL of assay dilution buffer (ADB; 20 mM MOPS, pH 7.2, 25 mM β-glycerol phosphate, 5 mM EGTA, 1 mM sodium orthovanadate, and 1 mM dithiothreitol), 10 μL of substrate peptide (RRRDDDSDDD, dissolved in ADB at a concentration of 1 mM), 10 μL of recombinant human CK2 (RRββ-holoenzyme, 25 ng dissolved in ADB; Millipore). Reactions were initiated by the addition of 10 μL of ATP solution (90% 75 mMMgCl2, 75 μM ATP (final ATP concentration:15 μM) dissolved in ADB; 10% [γ-33P] ATP (stock 1 mCi/100 μL; 3000 Ci/mmol (Perkin-Elmer) and maintained for 10 min at 30° C. The reactions were quenched with 100 μL of 0.75% phosphoric acid and then transferred to and filtered through a phosphor cellulose filter plate (Millipore). After washing each well five times with 0.75% phosphoric acid, the plate was dried under vacuum for 5 min and, following the addition of 15 μL of scintillation fluid to each well, the residual radioactivity was measured using a Wallac luminescence counter. The IC50 values were derived from eight concentrations of test inhibitors.

SMILES: O=C(O)c1ccc2c3cnccc3n(C(=O)c3cccc(Cl)c3)c2c1 [Compound (7), 5-(3-chlorobenzoyl)-5H-pyrido[4,3-b]indole-7-carboxylic acid]
- IC50 [1]: 0.9 µM
- IC50 [2]: 1.6 µM
- IC50 [3]: 4.4 µM
- IC50 [4]: 1.1 µM
- IC50 [5]: 2.3 µM
- IC50 [6]: 1.7 µM
- IC50 [7]: 5.2 µM
- IC50 [8]: 3.6 µM
- IC50 [9]: 0.036 µM
